# Data from US12697322B2, “Methods of treating cancer using androgen receptor antagonists” (Garvan Institute of Medical Research, priority 2019, dated 2026).
# Entries after “also recorded” stand apart in the source; their conditions may differ.
# Assays:
# [1] = tested on: CD44^Hi cells isolated from HMLER and HCC38 cell lines; assay: Cell proliferation assay (CyQuant); type: cell-based, human; conditions: for CD44^Hi proliferation: CD44^Hi cells from HMLER and HCC38
# Procedure: HMLER, HCC38 and MDA-MB-231 cells were plated in triplicate in 96-well plates at the densities outlined in Table 3. After 24 hours, cells were treated with various chemotherapeutic agents at the following doses: Doxorubicin (0 nM, 25 nM, 50 nM, 75 nM, 100 nM, 200 nM), Cisplatin (0 μg/ml, 0.1 μg/ml, 0.5 μg/ml, 1 μg/ml, 2 μg/ml, 5 μg/ml) or Docetaxel (0 nM, 1 nM, 5 nM, 10 nM, 25 nM, 50 nM); Androgen receptor agonists: Enobosarm (0 nM, 25 nM, 50 nM, 100 nM, 200 nM, 400 nM) or DHT (0 nM, 1 nM, 5 nM, 10 nM, 20 nM, 40 nM); or AR antagonist: Seviteronel (0 nM, 0.5 nM, 2 nM, 10 nM, 20 nM, 50 nM). Assays were harvested daily for five days by removing culture media and storing at −80′C. Cell proliferation was determined using CyQuant Cell Proliferation assay kit according to manufacturer's protocol (ThermoFisher Scientific) and fluorescence was measured at ~480 nm excitation and ~520 nm emission using a microplate reader.
# [2] = tested on: HMLER-CD44Hi and HCC38 CD44Hi cells; assay: Tumoursphere formation assay; type: cell-based, human; conditions: CD44^Hi cells, counted at Day 14
# Procedure: Single cell suspensions were plated in ultra-low attachment 96-well plates (Corning #CLS3474, New York, USA). HMLE-CD44^Hi cells were plated at a density of 50 cells/well in 100 μl of BPA-free MEGM media (Lonza # CC-3150, Basal, Switzerland). HCC38-CD44^Hi cells were plated at a density of 100 cells/well in serum-free RPMI with 1% penicillin/streptomycin, 20 ng/ml EGF, 20 ng/ml FGFb, 4 μg/mL heparin, 1×B27 and 1% methyl cellulose (Sigma). Media was replenished every five days by adding 50 μL of the appropriate tumoursphere media to each well. Tumourspheres were counted at Day 14. Results are presented as tumoursphere formation efficiency (number of spheres per well divided by the number of cells seeded per well). At Day 14, mammospheres were collected using a 40 μm cell strainer, washed with PBS and dissociated using trypsin-EDTA solution, and stained with anti-CD44PECy7 and anti-CD104PE as per standard FACS staining protocol.
# [3] = tested on: HMLER and HCC38 CD44^Lo cells; assay: Flow cytometry of chemotherapy-induced CD44^Lo to CD44^Hi plasticity; type: cell-based, human; conditions: for induction of CD44^Lo-to-CD44^Hi transition by chemotherapy: one dose of chemotherapy for 72 hours; for blocking of chemotherapy-induced CD44^Lo-to-CD44^Hi transitions: with chemotherapy simultaneously for 72 hours, Seviteronel 10 μM
# Excerpt: Cells were stained and fixed as with DHT treatment.
# Using purified populations of CD44^Lo cells (with no CD44^Hi fraction) the effects of chemotherapy on cellular plasticity was investigated using flow cytometry.
# [4] = tested on: MDA-MB-231 EGFP-Luciferase cells; assay: MDA-MB-231 xenograft, Seviteronel and Docetaxel (Example 5, FIG. 11); type: in vivo, mice; conditions: Seviteronel 100 mg/kg daily oral gavage, DTX 40 mg/kg i.p., 3 doses
# Procedure: Forty-eight mice were enrolled in the experiment and randomized into 4 treatment arms: Vehicle (Veh), Seviteronel (Sev), Docetaxel (DTX) or combination therapy (Sev+Dtx). Animals were 6-8 weeks of age at the time of injection. MDA-MB-231 EGFP-Luciferase cells were cultured in DMEM 10% FBS 1% P/S. On the surgery date, 1×10^6 cells resuspended in 20% Matrigel/DMEM were injected unilaterally into the mammary fat pad. Tumour growth was monitored twice per week to establish growth kinetics. Five weeks post-injection, when tumour size ranged between 50-100 mm^3, animals were randomized to receive daily oral gavage with either vehicle (1% Carboxymethylcellulose, 0.1% Tween-80 and 5% DMSO) or Seviteronel (100 mg/kg). Animals were dosed from Monday to Saturday, leaving 1 day recovery per week. After one week, animals were again randomized within the Vehicle or Seviteronel groups to Control or Chemotherapy (DTX). […] Metastatic burden and tumour size was determined using the IVIS-spectrum imaging system. […] The presence of metastatic cells in each organ was additionally determined by FACS analysis (fluorescence activate cell sorting) using a panel of antibodies previously established in the lab (CD298-PE, CD44-PEcy7 and CD104EF660). Results were analyzed and graphed using Flowjo3 and prism 8. […] Metastatic incidence was analyzed applying two-way ANOVA uncorrected Fisher's LSD test.
# [5] = tested on: MDA_MB-231-EGFP-Luc cells; assay: MDA-MB-231-EGFP-Luc orthotopic xenograft, Docetaxel and Seviteronel (Example 12, FIG. 12); type: in vivo, NSG female mice
# Procedure: 1×10^6 MDA_MB-231-EGFP-Luc cells were injected orthotopically into the mammary fat pad of NSG female mice. 14 animals were enrolled per treatment arm to reach 80% statistical power. Tumour size was monitored by caliper measurement twice per week. At the time tumour size reached 50-150 mm^3 animals were randomized into treatment arms: Vehicle (Veh), Seviteronel (Sev), Docetaxel, Docetaxel+Seviteronel. Seviteronel (100 mg/kg) was administrated via oral gavage daily (6 days on+1 day off) for cycles of 4. Seviteronel was resuspended into a 5% DMSO, 0.1% Tween 80, Hydro-methylcellulose solution at a 5 mg/ml concentration. […] Growth kinetics were monitored through the course of treatment and plotted using graph-pad prism (V9). […] At treatment endpoint, animals were injected with luciferin (10 μl/gr of 15 mg/ml stock) and metastatic burden analyzed using an IVIS spectrum imager 10 min post injection. […]
# 1×10^6 MDA_MB-231-EGFP-Luc cells were injected orthotopically into the mammary fat pad of NSG female mice. […] Tumour size was monitored by caliper measurement twice per week. […] Growth kinetics were monitored through the course of treatment by caliper measurement. […] Metastasis development was monitored until animals reached ethical end-point by weekly IVIS imaging. […]
# [6] = tested on: HMLER-CD44Hi and HCC38 CD44Hi cells; assay: Tumoursphere formation assay; type: cell-based, human
# AR full length (100 kDa) = assay: AR siRNA knockdown, western blot; type: cell-based, human; conditions: HCC38 CD44^Hi cells, 20 nM siRNA, 72 h post transfection
# Procedure: Protein was extracted from cell lysates using RIPA lysis buffer (sc-24948) or specific lysis buffer for phospho-proteins detection (20 mM Tris-HC1 pH 7.6, 137 mM NaCl, 1% NP40, 0.5% Na-deoxycholate, 10 mM NaF, 20 mM β-glycerophosphate, 1 mM Na-orthovanadate and 1:200 complete protease inhibitors). 25-30 μg of proteins were run in a 4-12% Bis-tris gel (Invitrogen). Proteins were transferred to a PVDF membrane (BioRad). After blocking with 5% BSA (w/v) and 0.05% (v/v) Tween-20 in PBS, the membranes were incubated overnight with the indicated antibodies, washed with PBS 0.05% (v/v) Tween-20 and incubated with the corresponding horseradish peroxidase-conjugated secondary antibodies (Cell Signaling; Dil 1/5000, Table 3) for 30 min. Blots were developed using Western Lightning Plus ECL (PerkinElmer) and FusionFx7 Digital Imager, Band intensities were quantified using Fiji (Schindelin et al., 2012) and results were represented relative to controls.
# siRNAs targeting exon 1 and 7 of AR full length were designed in-house (SEQ ID NOs: 6 and 7). HCC38 CD44^Hi cells (10^5/well) were seeded in M6 plate wells 24 hours prior to siRNA transfection. 20 nM of siRNA CT, siRNA AR Ex1 or AR Ex7 were delivered using lipofectamine 3000 (Thermofisher) as per manufacturer instructions.
molecule,measurement,setting,value
"C[C@]12CC[C@H](O)CC1=CC[C@@H]1[C@@H]2CC[C@]2(C)C(c3cccnc3)=CC[C@@H]12 [Abiraterone, (3p)-17-(pyridin-3-yl) androsta-5, 16-dien-3-ol]",CD44^Hi proliferation,[1],decreased CD44Hi proliferation; also recorded: decrease CD44^Hi proliferation
same,tumoursphere formation (tumoursphere-forming efficiency),[2],decrease
CC(=O)O[C@@]12CO[C@@H]1C[C@H](O)[C@@]1(C)C(=O)[C@H](O)C3=C(C)[C@@H](OC(=O)[C@H](O)[C@@H](NC(=O)OC(C)(C)C)c4ccccc4)C[C@@](O)([C@@H](OC(=O)c4ccccc4)[C@H]21)C3(C)C [Docetaxel],induction of CD44^Lo-to-CD44^Hi transition by chemotherapy,[3],induce CD44^Lo cells to transition to the CD44^Hi state
same,tumour growth,[4],significantly reduces tumour growth compared to Seviteronel alone
same,animals clear of metastasis (metastasis free survival),"[5]; 10 weeks following commencement of second round of treatment (Day 77), IVIS",0%
COc1cccc2c1C(=O)c1c(O)c3c(c(O)c1C2=O)C[C@@](O)(C(=O)CO)C[C@@H]3O[C@H]1C[C@H](N)[C@H](O)[C@H](C)O1 [Doxorubicin],induction of CD44^Lo-to-CD44^Hi transition by chemotherapy,[3],induce CD44^Lo cells to transition to the CD44^Hi state
"CNC(=O)c1ccc(N2C(=S)N(c3ccc(C#N)c(C(F)(F)F)c3)C(=O)C2(C)C)cc1F [Enzalutamide, 4-{3-[4-cyano-3-(trifluoromethyl)phenyl]-5,5-dimethyl-4-oxo-2-sulfanylideneimidazolidin-1-yl}-2-fluoro-iV-methylbenzamide]",CD44^Hi proliferation,[1],decreased CD44Hi proliferation; also recorded: decrease CD44^Hi proliferation
same,treatment required to equal the effect of Seviteronel,[1]; CD44^Hi proliferation and tumoursphere formation,daily treatment of Enzalutamide was required to equal one dose of Seviteronel
same,blocking of chemotherapy-induced CD44^Lo-to-CD44^Hi transitions,[3],not as effective as Seviteronel
"CC(C)[C@](O)(c1ccc2cc(OC(F)F)c(OC(F)F)cc2c1)c1c[nH]nn1 [Seviteronel, (1S)-1-[6,7-bis(difluoromethoxy)naphthalen-2-yl]-2-methyl-1-(2H-triazol-4-yl)propan-1-ol]",CD44^Hi proliferation,[1],decreased CD44Hi proliferation; also recorded: decrease CD44^Hi proliferation; also recorded: inhibits the growth of CD44^Hi cells
same,tumoursphere formation (tumoursphere-forming efficiency),[2],decrease; also recorded: dose-dependently inhibits tumoursphere-forming ability
same,blocking of chemotherapy-induced CD44^Lo-to-CD44^Hi transitions,[3],blocks chemotherapy-induced CD44^Lo-to-CD44^Hi transitions; also recorded: inhibits chemotherapy-induced CD44Lo-to-CD44-Hi plasticity; also recorded: can be blocked
same,tumour growth,[4],significantly reduces tumour growth kinetics compared to control
same,tumour growth compared with Veh (FIG. 12B),"[5]; Seviteronel 150 mg/kg/day 1st week then 100 mg/kg/day for 3 weeks, Dtx 20 mg/kg i.p. x3",significantly reduces tumour growth compared with Veh treatmet arm
same,size of tumorspheres,[6],reduces the size of tumorspheres
"AR Ex7: in-house siRNA targeting AR exon 7, SEQ ID NO: 7 (GGAACUCGAUCGUAUCAUUUU; listed as RNA, chemistry not given here)",expression of AR full length,AR full length (100 kDa),strong reduction
"siRNA AR Ex1: in-house siRNA against AR full length, SEQ ID NO: 6 (GCUUCUGGGUGUCACUAUGUU; listed as RNA, chemistry not given here)",expression of AR full length,AR full length (100 kDa),strong reduction
